The target in this assay is T1, γ-secretase (Homo sapiens, UniProt P49768).
T1 construct: endogenous in cells; host or cells: cells transfected with α-/β-CTF-Citrine constructs
In words: Subcellular localization of Citrine-labeled α-CTF/β-CTF constructs. As to conditions: Hek 293 cells transfected with α-CTF or β-CTF Citrine constructs. The assay is classed as cell-based. An excerpt:
In a first step, the CTF constructs alone were transfected, without any additional influence on subcellular localization and an entirely homogeneous distribution of Citrine fluorescence throughout the cell was observed. Like APP, these constructs first require cleavage of the signal peptide by Signal Peptidase. However, these “precleaved” CTFs never require ectodomain-shedding in the conventional sense of α- or β-secretase cleavage, which is time consuming not only because of the cleavage step alone, but because of the protein trafficking required to make APP accessible to the secretases. PS cleavage was therefore assumed to take place much more rapidly than is the case for wtAPP, whereupon the same experiments were performed with γ-secretase inhibitor L-685,458 aiming at prolonging the half-life of the uncleaved CTFs. […] Apart from this stabilization, however, no obvious difference was discerned between the subcellular localization of the two constructs.
Subcellular protein distribution of fluorescently tagged proteins or proteins stained as described supra was analyzed on a Leica TCS/SP2 confocal microscope. Pictures were acquired at a resolution of 1024×1024 using the 63×H2O immersion objective. Typically, 5-8 z-axis sections were recorded across the entire height of embedded cells so that typical section separations were 0.5 μm. […]

Consider `CC(C)C[C@H](NC(=O)[C@H](Cc1ccccc1)C[C@@H](O)[C@H](Cc1ccccc1)NC(=O)OC(C)(C)C)C(=O)N[C@@H](Cc1ccccc1)C(N)=O` [L-685,458], for which the “subcellular localization of uncleaved CTF-Citrine” value was “accumulation in ER and Golgi was observed”.

For the origin of these results see US20100169988A1, “MEANS AND METHODS FOR ISOLATING AND DETERMINING NOVEL TARGETS FOR THE TREATMENT OF NEURODEGENERATIVE, NEUROLOGICAL OR NEUROPSYCHIATRIC DISORDERS AND COMPOSITIONS COMPRISING THE SAME” (priority 2006, published 2010).
